Patent US20230026259A1, “CA2 COMPOSITIONS AND METHODS FOR TUNABLE REGULATION” (Obsidian Therapeutics, Inc., priority 2019, published 2023)

Experiments:
Type in all cases: cell-based
[1] = system: NIH3T3 cells; experiment: Destabilization mutant screening of human CA2 linked to GFP, ligand response by FACS (Valdecoxib, Celecoxib, Acetazolamide)
Method: To identify destabilizing mutations of human CA2 that are stabilized upon ligand binding to CA2, two rounds of mutant screening were performed, using a lentivirus CA2 mutant library provided by Genscript (China). These methods were used to generate a library of mutant polypeptides using mutagenesis primers and error prone PCR. Lentiviral vectors expressing the template, wild-type human CA2 operably linked to GFP(OT-001986) was also provided by Genscript along with the CA2 mutant library. The library was packaged into lentivirus, transduced into NIH3T3 cells at a multiplicity of infection (MOI) of approximately 0.3 and select stable cell pools were derived by selecting with selection marker puromycin.
To identify cell pools containing destabilizing mutants of CA2 that are stabilizing when CA2 is bound to its corresponding ligand, cells were sorted using FACS. In the initial round, the bottom 15% of population that was GFP negative in the absence of ligand was selected. Cells were expanded and then treated with 10 μM Celecoxib for 24 hours and harvested for cell sorting. The top 11% GFP positive cells which were also responsive to ligand treatment compared to untreated were collected. Celecoxib was removed from the cultures and replaced with DMSO. […] Genomic DNA was isolated and amplified CA2 mutants were reintroduced to the lentiviral vectors where CA2 was operably linked to GFP. The constructs were transduced into NIH3T3 cells with lentivirus vectors for each clone. The cells were treated with 10 μM Valdecoxib or 10 μM Celecoxib for 24 hours and analyzed by FACS. […] In Table 25, the Construct ID (OT-XXXXXX) refers to the construct which includes the referenced CA2 mutant and the Library ID (LibCXXXXXX) refers to the CA2 mutant itself.
The response of NIH3T3 cells to varying doses of Valdecoxib or Celecoxib for 24 hours was measured and analyzed by FACS.
Clones treated with different ligands were compared to examine the behavior of each mutant with the ligands.

[2] = system: human primary T cells; experiment: IL15-dependent expansion: T cell numbers and CD4/CD8 ratio by flow cytometry
Method: (§1) To test IL15-dependent expansion, beads were removed on day 10 and cells were washed. […] The T cell numbers (Table 30) and the change in CD4/CD8 ratio (Table 31) were determined by flow cytometry.

[3] = system: human primary T cells; experiment: Expression of IL15 chimeric constructs by flow cytometry (percent IL15 positive cells)
Source text: In vitro activity of IL15 chimeric constructs OT-002019 ((Met; CD34 (aa 1-32 of WT, M1G, S32A); IL15 (30-162 of WT); Linker ((GS)15); CD8a Hinge and Transmembrane Domain; Linker (GS); stop), amino acid SEQ ID NO: 210876, nucleic acid SEQ ID NO: 210877) and OT-002090 ((Ig Kappa light chain leader; IL15 (49-162 of WT); Linker ((GS)15); B7-1 Hinge, Transmembrane Domain and Tail; Linker (GS); stop), amino acid SEQ ID NO: 210878, nucleic acid SEQ ID NO: 210879) and CA2 regulated IL15 chimeric construct (OT-002094) were tested in human primary T cells. Human primary T cells were transduced with lentivirus 24 hours after activation with CD3/CD28 beads. Cells were expanded for 10 days. […] The percentage of IL15 positive cells obtained for each treatment group is as follows (a) OT-002019: 82.3% (b) OT-002090: 43.6% (c) OT-002094 with DMSO: 0.7% (d) OT-002094 with 10 μM Acz: 27.9% and (e) untransduced (UT): 0.3%.
as §1

[4] = NIH3T3, 10 μM Celecoxib vs DMSO
[5] = NIH3T3, 10 μM Valdecoxib vs DMSO
[6] = day 0 in culture, untransduced T cells + exogenous IL15 1 ng/ml
[7] = day 3 in culture, untransduced T cells + exogenous IL15 1 ng/ml
[8] = day 7 in culture, untransduced T cells + exogenous IL15 1 ng/ml
[9] = day 10 in culture, untransduced T cells + exogenous IL15 1 ng/ml

## CA2 (aa 2-260 of WT, T35I, Y114H, P154L, D161V, P200A, F225L, E233D, W244*) [LibC000188]
[1]; NIH3T3, 10 μM Celecoxib
  Median PE: 225
[1]; [4]
  SR (stabilization ratio): 1.09
[1]; NIH3T3, 10 μM Valdecoxib
  Median PE: 228
[1]; [5]
  SR (stabilization ratio): 1.11
[1]; NIH3T3, DMSO
  Median PE: 206
[1]; NIH3T3, DMSO (reference)
  SR (stabilization ratio): 1

## (Met; CD34 (aa 1-32 of WT, M1G, S32A); IL15 (30-162 of WT); Linker ((GS)15); CD8a Hinge and Transmembrane Domain; Linker (GS); stop) [OT-002019]
[2]; day 0 in culture, 3 uM ACZ
  CD4/CD8 Ratio: 2.51
  T Cell Numbers: 1.0E+06
[2]; day 0 in culture, 10 uM ACZ
  CD4/CD8 Ratio: 2.51
  T Cell Numbers: 1.0E+06
[2]; day 0 in culture, media alone
  CD4/CD8 Ratio: 2.51
  T Cell Numbers: 1.0E+06
[2]; day 3 in culture, 3 uM ACZ
  CD4/CD8 Ratio: 0.46
  T Cell Numbers: 1.7E+06
[2]; day 3 in culture, 10 uM ACZ
  CD4/CD8 Ratio: 0.47
  T Cell Numbers: 1.7E+06
[2]; day 3 in culture, media alone
  CD4/CD8 Ratio: 0.45
  T Cell Numbers: 2.0E+06
[2]; day 7 in culture, 3 uM ACZ
  CD4/CD8 Ratio: 0.06
  T Cell Numbers: 5.7E+06
[2]; day 7 in culture, 10 uM ACZ
  CD4/CD8 Ratio: 0.07
  T Cell Numbers: 5.6E+06
[2]; day 7 in culture, media alone
  CD4/CD8 Ratio: 0.06
  T Cell Numbers: 6.7E+06
[2]; day 10 in culture, 3 uM ACZ
  CD4/CD8 Ratio: 0.02
  T Cell Numbers: 1.7E+07
[2]; day 10 in culture, 10 uM ACZ
  CD4/CD8 Ratio: 0.03
  T Cell Numbers: 1.6E+07
[2]; day 10 in culture, media alone
  CD4/CD8 Ratio: 0.02
  T Cell Numbers: 2.1E+07
[3]; day 0 in culture, 3 uM ACZ
  Percent of cells IL15 positive: 75%
[3]; day 0 in culture, 10 uM ACZ
  Percent of cells IL15 positive: 75%
[3]; day 0 in culture, media alone
  Percent of cells IL15 positive: 75%
[3]; day 3 in culture, 3 uM ACZ
  Percent of cells IL15 positive: 82%
[3]; day 3 in culture, 10 uM ACZ
  Percent of cells IL15 positive: 82%
[3]; day 3 in culture, media alone
  Percent of cells IL15 positive: 82%
[3]; day 7 in culture, 3 uM ACZ
  Percent of cells IL15 positive: 84%
[3]; day 7 in culture, 10 uM ACZ
  Percent of cells IL15 positive: 85%
[3]; day 7 in culture, media alone
  Percent of cells IL15 positive: 84%
[3]; day 10 in culture, 3 uM ACZ
  Percent of cells IL15 positive: 78%
[3]; day 10 in culture, 10 uM ACZ
  Percent of cells IL15 positive: 79%
[3]; day 10 in culture, media alone
  Percent of cells IL15 positive: 76%
[3]; human primary T cells, day 6, no ligand stated
  percentage of IL15 positive cells: 82.3%

## IL15
[2]; [6]
  CD4/CD8 Ratio: 5.64
  T Cell Numbers: 1.0E+06
[2]; [7]
  CD4/CD8 Ratio: 2.57
  T Cell Numbers: 3.2E+06
[2]; [8]
  CD4/CD8 Ratio: 0.64
  T Cell Numbers: 5.4E+06
[2]; [9]
  CD4/CD8 Ratio: 0.28
  T Cell Numbers: 1.2E+07
[3]; [6]
  Percent of cells IL15 positive: 0%
[3]; [7]
  Percent of cells IL15 positive: 1%
[3]; [8]
  Percent of cells IL15 positive: 0%
[3]; [9]
  Percent of cells IL15 positive: 1%

## CA2 (aa 2-260 of WT, H17D, P30S, G81V, K132R, S151I, A152D, A173G, W191*) [LibC000191]
[1]; NIH3T3, 10 μM Celecoxib
  Median PE: 173
[1]; [4]
  SR (stabilization ratio): 1.08
[1]; NIH3T3, 10 μM Valdecoxib
  Median PE: 177
[1]; [5]
  SR (stabilization ratio): 1.11
[1]; NIH3T3, DMSO
  Median PE: 160
[1]; NIH3T3, DMSO (reference)
  SR (stabilization ratio): 1

## CA2 (aa 2-260 of WT, L47R) [LibC000220]
[1]; NIH3T3, 10 μM Celecoxib
  Median PE: 384
[1]; [4]
  SR (stabilization ratio): 1.2
[1]; NIH3T3, 10 μM Valdecoxib
  Median PE: 408
[1]; [5]
  SR (stabilization ratio): 1.31
[1]; NIH3T3, DMSO
  Median PE: 311
[1]; NIH3T3, DMSO (reference)
  SR (stabilization ratio): 1
